Source: patent US11524938B2, “Aromatic sulfonamide derivatives” (Bayer Pharma Aktiengesellschaft, priority 2016, dated 2022)

Target: T1, human P2X4 (Homo sapiens, UniProt Q99571)
T1 sequence (Q99571 1-388): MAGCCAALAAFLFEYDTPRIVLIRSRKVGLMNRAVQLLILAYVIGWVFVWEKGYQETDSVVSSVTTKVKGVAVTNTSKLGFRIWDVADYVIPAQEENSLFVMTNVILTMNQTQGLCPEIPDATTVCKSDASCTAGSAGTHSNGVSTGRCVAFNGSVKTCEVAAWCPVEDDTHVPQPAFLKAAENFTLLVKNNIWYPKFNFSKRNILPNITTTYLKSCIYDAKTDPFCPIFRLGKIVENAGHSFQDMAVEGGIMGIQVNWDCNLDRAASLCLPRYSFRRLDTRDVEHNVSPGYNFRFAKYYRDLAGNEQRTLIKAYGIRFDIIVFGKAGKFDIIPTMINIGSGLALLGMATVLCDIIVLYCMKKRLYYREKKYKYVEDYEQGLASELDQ
Experiment: Human P2X4 HEK Cell FLIPR Assay
Format: cell-based
Settings: agonist Bz-ATP at EC80; for Emax: HEK293, HEK293 cells, percentage of maximal inhibition, read-out: Human P2X4 HEK Cells (FLIPR Assay) avg Efficacy [%]; for IC50: HEK293 cells, individual values listed where some fall outside detection range
Outline: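 Calcium flux read by FLIPR for 120 sec after Bz-ATP challenge at EC80 (established each assay day), following 30 min room-temperature compound preincubation in dye-loaded stable human P2X4 HEK293 cells. Peak RFU over basal normalized to agonist control; IC50, maximal inhibition and Hill coefficient from triplicate means.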

| SMILES | Emax [%] | IC50 [nM] |
| --- | --- | --- |
| Cc1cc(-c2ccc(NC(=O)Cc3ccccc3Cl)cc2S(N)(=O)=O)n(C)n1 [Example 351, 2-(2-Chlorophenyl)-N-[4-(1,3-dimethyl-1H-pyrazol-5-yl)-3-sulfamoylphenyl]acetamide] | 88 | 51 |
| NS(=O)(=O)c1cc(NC(=O)Cc2ccccc2Cl)ccc1-c1ccc(Cl)cc1 [Example 352, 2-(2-Chlorophenyl)-N-(4′-chloro-2-sulfamoylbiphenyl-4-yl)acetamide] | 91 | 54 |
| Cn1nc(C(F)(F)F)cc1-c1ccc(NC(=O)Cc2ccccc2Cl)cc1S(N)(=O)=O [Example 353, 2-(2-Chlorophenyl)-N-{4-[1-methyl-3-(trifluoromethyl)-1H-pyrazol-5-yl]-3-sulfamoylphenyl}acetamide] | 87 | 57 |
| NS(=O)(=O)c1cc(NC(=O)Cc2ccccc2Cl)ccc1-c1cccnc1 [Example 354, 2-(2-Chlorophenyl)-N-[4-(pyridin-3-yl)-3-sulfamoylphenyl]acetamide] | 92 | 60 |
| NS(=O)(=O)c1cc(NC(=O)Cc2ccccc2Cl)ccc1-c1cccc(Cl)c1 [Example 356, 2-(2-Chlorophenyl)-N-(3′-chloro-2-sulfamoylbiphenyl-4-yl)acetamide] | 96 | 63 |
| Cc1nn(C)cc1-c1ccc(NC(=O)Cc2ccccc2Cl)cc1S(N)(=O)=O [Example 358, 2-(2-Chlorophenyl)-N-[4-(1,3-dimethyl-1H-pyrazol-4-yl)-3-sulfamoylphenyl]acetamide] | 88 | 74 |
| Cn1cc(-c2ccc(NC(=O)Cc3ccccc3Cl)cc2S(N)(=O)=O)cn1 [Example 360, 2-(2-Chlorophenyl)-N-[4-(1-methyl-1H-pyrazol-4-yl)-3-sulfamoylphenyl]acetamide] | 93 |  |
| Cc1c(-c2ccc(NC(=O)Cc3ccccc3Cl)cc2S(N)(=O)=O)cnn1-c1ccccc1 [Example 363, 2-(2-Chlorophenyl)-N-[4-(5-methyl-1-phenyl-1H-pyrazol-4-yl)-3-sulfamoylphenyl]-acetamide] | 110 | 108 |
| NS(=O)(=O)c1cc(NC(=O)Cc2ccccc2Cl)ccc1-c1cnn2cccnc12 [Example 365, 2-(2-Chlorophenyl)-N-[4-(pyrazolo[1,5-a]pyrimidin-3-yl)-3-sulfamoylphenyl]acetamide] | 89 | 113 |
| NS(=O)(=O)c1cc(NC(=O)Cc2ccccc2Cl)ccc1-c1cncc(C(=O)N2CCCC2)c1 [Example 366, 2-(2-Chlorophenyl)-N-{4-[5-(pyrrolidin-1-ylcarbonyl)pyridin-3-yl]-3-sulfamoylphenyl}acetamide] | 97 | 128 |
| NS(=O)(=O)c1cc(NC(=O)Cc2ccccc2Cl)ccc1-c1cn[nH]c1 [Example 367, 2-(2-Chlorophenyl)-N-[4-(1H-pyrazol-4-yl)-3-sulfamoylphenyl]acetamide] | 83 | 131 |
| Cn1nc(C(F)(F)F)cc1-c1ccc(NC(=O)Cc2ccccc2F)cc1S(N)(=O)=O [Example 368, 2-(2-Fluorophenyl)-N-{4-[1-methyl-3-(trifluoromethyl)-1H-pyrazol-5-yl]-3-sulfamoylphenyl}acetamide] | 100 | 133 |
| COCCn1cc(-c2ccc(NC(=O)Cc3ccccc3F)cc2S(N)(=O)=O)cn1 [Example 369, 2-(2-Fluorophenyl)-N-{4-[1-(2-methoxyethyl)-1H-pyrazol-4-yl]-3-sulfamoylphenyl}acetamide] | 110 | 141 |
| CC(C)(O)Cn1cc(-c2ccc(NC(=O)Cc3ccccc3Cl)cc2S(N)(=O)=O)cn1 [Example 370, 2-(2-Chlorophenyl)-N-{4-[1-(2-hydroxy-2-methylpropyl)-1H-pyrazol-4-yl]-3-sulfamoylphenyl}acetamide] | 76 | 143 |
| NS(=O)(=O)c1cc(NC(=O)Cc2cc(Cl)ccc2F)ccc1-c1cnn(C2CC2)c1 [Example 371, 2-(5-Chloro-2-fluorophenyl)-N-[4-(1-cyclopropyl-1H-pyrazol-4-yl)-3-sulfamoylphenyl]acetamide] | 99 | 152 |
| Cc1ccc(-c2ccc(NC(=O)Cc3ccccc3Cl)cc2S(N)(=O)=O)cn1 [Example 372, 2-(2-Chlorophenyl)-N-[4-(6-methylpyridin-3-yl)-3-sulfamoylphenyl]acetamide] | 83 | 166 |
| Cn1cc(-c2ccc(NC(=O)Cc3ccccc3F)cc2S(N)(=O)=O)cn1 [Example 374, 2-(2-Fluorophenyl)-N-[4-(1-methyl-1H-pyrazol-4-yl)-3-sulfamoylphenyl]acetamide] | 82 | 386 |
| NS(=O)(=O)c1cc(NC(=O)Cc2ccccc2F)ccc1-c1nnc(C2CC2)o1 [Example 376, N-[4-(5-Cyclopropyl-1,3,4-oxadiazol-2-yl)-3-sulfamoylphenyl]-2-(2-fluorophenyl)-acetamide] | 98 | 9 |
| NS(=O)(=O)c1cc(NC(=O)Cc2ccccc2Cl)ccc1-n1cc(C(F)F)cn1 [Example 379, 2-(2-Chlorophenyl)-N-{4-[4-(difluoromethyl)-1H-pyrazol-1-yl]-3-sulfamoylphenyl}acetamide] | 87 | 29 |
| NS(=O)(=O)c1cc(NC(=O)Cc2ccccc2F)cnc1-n1cc(F)cn1 [Example 384, 2-(2-Fluorophenyl)-N-[6-(4-fluoro-1H-pyrazol-1-yl)-5-sulfamoylpyridin-3-yl]acetamide] | 81 | 524 |

Other lines, results leading:

| Emax [%] | IC50 [nM] | SMILES |
| --- | --- | --- |
| 76 | 62 | Cn1cc(-c2ccc(NC(=O)Cc3ccccc3Cl)cc2S(N)(=O)=O)c(C(F)(F)F)n1 [Example 355, 2-(2-Chlorophenyl)-N-{4-[1-methyl-3-(trifluoromethyl)-1H-pyrazol-4-yl]-3-sulfamoylphenyl}acetamide] |
| 87 | 71 | NS(=O)(=O)c1cc(NC(=O)Cc2ccccc2Cl)ccc1-c1cnn(CC2CC2(Cl)Cl)c1 (stereo not shown) [Example 357, 2-(2-Chlorophenyl)-N-(4-{1-[(2,2-dichlorocyclopropyl)methyl]-1H-pyrazol-4-yl}-3-sulfamoylphenyl)acetamide] |
| 84 | 77 | CC(C)n1cc(-c2ccc(NC(=O)Cc3ccccc3Cl)cc2S(N)(=O)=O)cn1 [Example 359, 2-(2-Chlorophenyl)-N-{4-[1-(propan-2-yl)-1H-pyrazol-4-yl]-3-sulfamoylphenyl}-acetamide] |
| 83 | 97 | CC(C)(C)C(O)Cn1cc(-c2ccc(NC(=O)Cc3ccccc3Cl)cc2S(N)(=O)=O)cn1 (stereo not shown) [Example 361, 2-(2-Chlorophenyl)-N-{4-[1-(2-hydroxy-3,3-dimethylbutyl)-1H-pyrazol-4-yl]-3-sulfamoylphenyl}acetamide] |
| 78 | 102 | NS(=O)(=O)c1cc(NC(=O)Cc2ccccc2F)ccc1-c1cncc(F)c1 [Example 362, 2-(2-Fluorophenyl)-N-[4-(5-fluoropyridin-3-yl)-3-sulfamoylphenyl]acetamide] |
| 77 | 715 | CN(C)CCNC(=O)c1cccc(-c2ccc(NC(=O)Cc3ccccc3Cl)cc2S(N)(=O)=O)c1 [Example 364, 4′-{[(2-Chlorophenyl)acetyl]amino}-N-[2-(dimethylamino)ethyl]-2′-sulfamoylbiphenyl-3-carboxamide] |
| 89 | 167 | NS(=O)(=O)c1cc(NC(=O)Cc2ccccc2Cl)ccc1-c1cnn(C2COC2)c1 [Example 373, 2-(2-Chlorophenyl)-N-{4-[1-(oxetan-3-yl)-1H-pyrazol-4-yl]-3-sulfamoylphenyl}-acetamide] |
| 79 | 660 | Cc1nn(C)cc1-c1ccc(NC(=O)Cc2ccccc2F)cc1S(N)(=O)=O [Example 375, N-[4-(1,3-Dimethyl-1H-pyrazol-4-yl)-3-sulfamoylphenyl]-2-(2-fluorophenyl)acetamide] |
| 80 | 27 | NS(=O)(=O)c1cc(NC(=O)Cc2ccccc2Cl)ccc1-c1nnc(C2CC2)o1 [Example 377, 2-(2-Chlorophenyl)-N-[4-(5-cyclopropyl-1,3,4-oxadiazol-2-yl)-3-sulfamoylphenyl]-acetamide] |
| 84 | 89 | NS(=O)(=O)c1cc(NC(=O)Cc2ccccc2F)ccc1-n1cc(C(F)F)cn1 [Example 378, N-{4-[4-(Difluoromethyl)-1H-pyrazol-1-yl]-3-sulfamoylphenyl}-2-(2-fluorophenyl)acetamide] |
| 77 |  | NS(=O)(=O)c1cc(NC(=O)Cc2ccccc2F)cnc1-n1cc(C(F)(F)F)cn1 [Example 381, 2-(2-Fluorophenyl)-N-{5-sulfamoyl-6-[4-(trifluoromethyl)-1H-pyrazol-1-yl]pyridin-3-yl}acetamide] |
| 87 | 315 | N#Cc1cnn(-c2ncc(NC(=O)Cc3ccccc3F)cc2S(N)(=O)=O)c1 [Example 382, N-[6-(4-Cyano-1H-pyrazol-1-yl)-5-sulfamoylpyridin-3-yl]-2-(2-fluorophenyl)acetamide] |
| 93 | 45 | N#Cc1cnn(-c2ncc(NC(=O)Cc3ccccc3Cl)cc2S(N)(=O)=O)c1 [Example 383, 2-(2-Chlorophenyl)-N-[6-(4-cyano-1H-pyrazol-1-yl)-5-sulfamoylpyridin-3-yl]acetamide] |
